Test results taken from US4221909A, “P-Acetamidobenzoic acid salts of 9-(hydroxyalkyl) purines” (Sloan-Kettering Institute for Cancer Research, priority 1978, dated 1980).
Converted amounts (≈) assume the structure as drawn.

Experiments:
L-1210 cells = test: Anti-Leukemic Activity (Inhibition of L-1210 Growth); type: cell-based, mouse
Description: Leukemic cells isolated from mice bearing the L-1210 tumor are cultured in vitro and their growth can be measured by counting the number of cells in the culture over a period of time. The incorporation of a test substance into the media will prevent the growth of the leukemic cells, an indication of an effective anti-leukemic agent.
Check to see that there is adequate cell growth in the stock cultures. Use cells 48-72 hours after transfers are done.
Weigh out the drugs at 50 times the desired final concentration and made serial dilutions.
Make up the final medium using 500 mls McCoy's 5A medium, 15% fetal calf serum, 5 mls penicillin-streptomycin solution, and 5 mls antibiotic-antimycotic solution and let it stand at room temperature.
Using sterile technique, add 0.1 ml of the drug dilutions to each tube.
Add an appropriate quantity of cells to the prepared medium. After mixing, remove a 0.5 ml sample, place it in a vial containing […] of saline, and count it on the Coulter Counter. Multiply the count by 40 to compensate for the 40 fold dilution (0.5 ml into […] and record the inoculum.
Add 5 mls of cell suspension to each tube. Swirl the bottle every 4 tubes to insure a more uniform distribution of cells.
Tighten the caps and place in the CO2 incubator at 36°-38° for 96 hours. […]

[1] = test system: guinea pig peritoneal macrophages; test: Lymphokine Induced (MMF) Guinea Pig Macrophage Proliferation; type: cell-based
Source text: The following three assay procedures are used to evaluate the ability of the test substances to modulate the activity of several classes of cells in the immune system. In these systems it is possible to identify both immunopotentiating activity (evidence by an enhancement of the parameter examined) as well as immunosuppressant activity (evidenced by an inhibition of the parameter examined).
3. The macrophage represents a subpopulation of white blood cells which is an important component of the immune system in control of both cellular and humoral immunity. The assay system described below evaluates the substances studied as potentiators of macrophage function.
Phytohemagglutinin(PHA) (HA-17) was purchased from Burroughs Wellcome. A preparation containing Macrophage Mitogen Factor (MMF) and Macrophage Activating Factor (MAF) was prepared from antigen-stimulated immune lymph node lymphocytes (guinea pig) as previously described by Hadden et al, Nature 257, 483-485 (1975). […] The active fraction was employed in both the proliferation and activation assays.
Ficoll-hypaque purified human peripheral blood lymphocytes were prepared and PHA-induced lymphocyte proliferation was assayed by the incorporation of tritiated thymidine as described in Hadden et al, Cell. Immunol. 20, 98-103 (1975). Each compound was analyzed in the presence of suboptimal, optimal and supraoptimal concentrations of PHA (0.001, 0.01, 0.1 units/ml respectively). Paraffin oil-induced guinea pig peritoneal macrophages were prepared and incubated as monolayer culture (>98% pure macrophages). Lymphokine (MMF)-induced proliferation was assayed by the incorporation of triturated thymidine at 3 and 5 days of culture as described, Hadden et al, Nature 257, 483-485 (1975). Lymphokine (MAF)-induced macrophage activation to kill Listeria monocytogenes following 5 days of culture in the presence or absence of MAF was performed during a 6 hour period as described in Hadden and England, Immunopharmacology, pages 87-100 (Plenum Press, 1977). Phagocytosis was quantitated during a 20-minute exposure to Listeria monocytogenes by counting the number of macrophages containing bacteria and the number of bacteria per phagocytic cell on gram stained monolayers in Labtek chambers. Intracellular killing of bacteria was evaluated by counting the number of cells containing bacteria and the number of bacteria/cell 6 hours after the initial 20 minute exposure. Parallel experiments in which macrophages were lysed and intracellular bacteria were cultured confirm the validity of bacterial activity determined by this manner in this sytem. The drugs were employed in each of the three systems over serial log concentration range in triplicate in the presence and absence of mitogen or lymphokine. Each type of experiment was performed at least three times. Previous experiments indicate a parallelism of response to pharmacologic modulation in the proliferation and activation assays.

[2] = test system: human peripheral blood lymphocytes; test: Mitogen Induced (PHA) Human Lymphocyte Proliferation; type: cell-based
spleen cells [3] = test: In vivo treatment of mice: effect on in vitro stimulation of spleen cell proliferation by Con A; parameters: species or system mice (Balb/C); conditions: oral, twice daily for 1 day; for response of spleen cells to Con A versus placebo: Con A 10 μg/ml; for subsequent response of the spleen cells, in vitro, to Con A stimulation: suboptimal Con A 5 μg/ml
Description: (§1) The purpose of this study was to determine the effects of in vivo treatment of mice with the compounds NPT 15392 and 15410 on the subsequent activity of spleen cells isolated from these animals and evaluated in vitro for their proliferative response to the mitogen, Concanavalin A (Con A).
Nine male Balb/C mice, 8-9 weeks old, weighing 18-20 gms were divided into three groups. One group was treated twice daily (for 1 day), in the morning and afternoon, with an oral dose of NPT 15392 at 10 mg/kg. The second group was similarly treated with NPT 15410 at 20 mg/kg. A third group, dosed with saline served as a placebo control.
(§2) The following day, each group was sacrificed and the spleens removed and pooled. The spleens were minced and the cells washed in RPMI-1640 medium (Grand Island Biologicals) supplemental with 2 mm glutamine and antibiotics. The cell concentration of each preparation was determined by a Coulter counter and adjusted to 5×10^6 cells/ml with RPMI medium.
(§3) Microtiter assays were carried out in 0.2 ml incubations, containing 5×10^5 cells and Con A or Con A and compounds at the indicated concentrations. All assays were performed with 6 replicates and compared with a blank assay containing only cells. The assay plates were incubated at 37° in 5% CO2 for 4 days. During the final 18-20 hours of incubation, 0.5 ml of ^3 HTdR (10 μCi/ml, 6 Ci /m mole) were added to each culture. The cultures were harvested with a multiple automatic sample harvester (MASH) unit and the incorporated ^3 HTdR determined with a Beckman LS 8000 liquid scintillation counter, as a measure of cell proliferation. The results are tabulated as the ratio of the activity in the Con A or Con A and compound treated cultures to the blank cultures.

spleen cells [4] = test: In vitro treatment of Con A stimulated spleen cells; type: cell-based, mice (Balb/C); conditions: compound 1 μg/ml; suboptimal Con A 5 μg/ml
Source text: as §1, §2
as §3, with “cultures. […]” for “cultures.”

Structure (SMILES)	IC50 (L-1210 cells; Mus musculus, L1210, 96 h, 96 hours, text: μg/ml, read-out: I50 (concentration of drug inhibiting growth of L-1210)) [µg/mL]	Maximum Percent Change, Lymphokine Induced (MMF) Guinea Pig Mac. Prolif. ([1]; 1.0-10, listed as 15417) [%]	Maximum Percent Change, Lymphokine Induced (MMF) Guinea Pig Mac. Prolif. ([1]; 10-100) [%]	Maximum Percent Change, Mitogen Induced (PHA) Human Lymph. Prolif. ([2]; 1.0-10) [%]	Maximum Percent Change, Mitogen Induced (PHA) Human Lymph. Prolif. ([2]; 10-100) [%]	Maximum Percent Change, Mitogen Induced (PHA) Human Lymph. Prolif. ([2]; .01-1.0)	response of spleen cells to Con A versus placebo (spleen cells [3])	subsequent response of the spleen cells, in vitro, to Con A stimulation (spleen cells [3])	augmentation of Con A stimulation (spleen cells [4])	Maximum Percent Change, Lymphokine Induced (MMF) Guinea Pig Mac. Prolif. ([1]; 1.0-10, listed as 15418) [%]	Maximum Percent Change, Lymphokine Induced (MMF) Guinea Pig Mac. Prolif. ([1]; .01-1.0) [%]	DIP.PAcBA potentiation of Anti-Leukemia activity (L-1210 cells; DIP.PAcBA salt vs parent compound)	Maximum Percent Change, Lymphokine Induced (MMF) Guinea Pig Mac. Prolif. ([1]; 1.0-10) [%]
CCCCCCC(CO)n1cnc2c(=O)[nH]cnc21 (centres unmarked) [NPT 15417]	47 (≈ 178 µM)	13	-50	0	-50	0%	–	–	–	–	–	–	–
CCCCCC[C@H]([C@H](C)O)n1cnc2c(=O)[nH]cnc21 (relative stereo) [NPT 15392, Erythro-9-(2-Hydroxy-3-Nonyl)Hypoxanthine]	–	–	–	–	–	–	No significant differences	increases the subsequent response of the spleen cells	marked ability to augment the Con A stimulation	–	–	–	–
CCCCCCC(CO)n1cnc2c(=O)[nH]cnc21 (centres unmarked) [NPT 15418]	–	–	-50	–	–	–	–	–	–	80	12	–	–
CCCCCC[C@H]([C@H](C)O)n1cnc2c(=O)[nH]cnc21 (relative stereo) [NPT 15410]	–	–	–	60	–	30-50%	No significant differences	increases the subsequent response of the spleen cells	marked ability to augment the Con A stimulation	–	12	Yes	23
